According to US8759405B2, “Stevia extract or steviol for hair care” (DSM IP Assets B.V., priority 2009, dated 2014):
“Also recorded” adds a separate entry of the source.

Tests used:
[1] = system: Human hair follicles; assay: Growth of human hair follicle (length measurements); format: cell-based
Protocol: (§1) Human hair follicles were obtained from human skin fragments (obtained by plastic surgery) and grown in supplemented William's E medium supplemented with penicillin/streptomycin, L-glutamine (2 mM/L), insulin (10 μg/mL and hydrocortisone (8 nM/L). Hair follicle growth was assessed via length measurements (days 0, 4, and 7). Triiodothyronine (T3, 30 μM/L) was used as positive control. The effect of steviol (at 0.625-5 μg/mL) was tested in parallel. On day 7, RNA was extracted from hair follicles that had been subjected to different treatments (control, T3, steviol). RNA was processed for Affymetrix® DNA microarray analysis in order to identify effects of compounds on gene expression. Where appropriate, RNA expression levels were further quantified by RT-PCR using the ABI 7900 Taqman instrumentation.

[2] = system: human hair follicle; assay: mRNA level of marker genes in human hair follicle by RT-PCR; format: cell-based
Protocol: as §1, with “The effect of steviol (at 0.625-5 μg/mL) was tested in parallel.” left out, “instrumentation. […] The mRNA level of some marker genes involved in growth and/or differentiation of cells in the skin and in hair follicle was further determined by RT-PCR and is shown in Table 4.” for “instrumentation.”

[3] = system: whole mouse skin; assay: Gene expression in whole mouse skin by quantitative RT-PCR after dietary supplementation; format: in vivo, mice; conditions: eight weeks
Protocol: The effect of steviol on gene expression was also analysed in whole mouse skin (also containing hair follicles). To this aim, mice were fed a normal diet or a diet supplemented with steviol (see also relevant data above). After eight weeks of supplementation, mice were sacrificed and skin was isolated and freed from hair. Quantitative RT-PCR was performed for selected genes using the same technology as described for hair follicles (see above). Remarkably, we identified changes in expression levels of some genes that are involved in skin physiology and homeostasis.

[4] = system: Human hair follicles; assay: Gene expression in human hair follicles by DNA microarray analysis; format: cell-based
Protocol: as §1, with “instrumentation. […] Global effects of steviol on gene expression were determined by transcriptomics i.e. DNA microarray analysis. The obtained data were processed with Genedata software tools. […] Thus another aspect of this invention is a method of up-regulating at least one of the genes listed in Table 3 comprising administering steviol and observing a hair growth effect.” for “instrumentation.”

[5] = system: aged C57B1/6J mice; assay: Chronic steviol treatment, subjective rating of fur and skin condition pre- and post-treatment; format: in vivo; conditions: 120 mg/kg/d in diet, 6 weeks, pre- vs post-treatment
Protocol: FIG. 2 Effects of chronic steviol treatment (120 mg/kg, p.o., 6 weeks) on (a) fur colour and (b) hair loss in aged C57B1/6J mice. […] [table] Female, aged, C57B1/6J mice (22-24 months of age) were assessed for their fur quality at the start and end of a six-week study. Prior to commencement of treatment, photographs were taken of all mice whilst under light anaesthesia (2.2-2.4% isofluorane). Mice were then fed either placebo diet or diet supplemented with steviol (120 mg/kg/d) for six weeks. At the end of the six week treatment phase, mice were again anaesthetised and further photographs were taken. Eleven participants with extensive experience of performing experimental studies using mice were asked to complete the same questionnaire (see Table 1), to enable subjective rating of a number of parameters of fur quality and of the appearance of skin wounds, by assessing the photographs taken before and after treatment. Statistical analyses were performed using Prism 5 (GraphPad Software, La Jolla, Calif., USA) and comprised two-way ANOVA (test factors: Time and Treatment), followed by Bonferroni post-hoc tests, where appropriate.

Q: What does the source list for `C=C1C[C@@]23CC[C@H]4[C@@](C)(CCC[C@@]4(C)C(=O)O)[C@@H]2CC[C@]1(O)C3` [Steviol, steviol]?
A: Growth (% of control) ([1]; 0.625 μg/mL): 122 % of control; Growth (% of control) ([1]; 1.25 μg/mL): 121 % of control; Growth (% of control) ([1]; 2.5 μg/mL): 113 % of control; Growth (% of control) ([1]; 5 μg/mL): 117 % of control; elongation of hair follicles ([1]; 0.625-5 μg/mL): dose-dependently favoured the elongation of hair follicles; Fold changes (versus control): Integrin alpha-6 ([2]; 0.625 μg/mL): 1.62 ± 0.06 fold; Fold changes (versus control): COX-2 ([2]; 1.25 μg/mL): 0.46 ± 0.17 fold; Fold changes (versus control): HO-1 ([2]; 1.25 μg/mL): 0.64 ± 0.08 fold; Fold changes (versus control): Involucrin ([2]; 1.25 μg/mL): 0.51 ± 0.22 fold; Fold changes (versus control): Keratin 6 ([2]; 10 μg/mL): 1.33 ± 0.11 fold; % of control (based on fold-change): CXC10 [3]: 132 ± 50 % of control; % of control (based on fold-change): IL-6 [3]: 130 ± 31 % of control; % of control (based on fold-change): MMP-8 [3]: 73 ± 23 % of control; % of control (based on fold-change): MMP-13 [3]: 53 ± 9 % of control; % of control (based on fold-change): PPAR-δ [3]: 60 ± 37 % of control; Ratio of steviol-treated/untreated: CASP8 and FADD-like apoptosis regulator ([4]; day 7, microarray): 2.58; Ratio of steviol-treated/untreated: Chemokine (C-X-C motif) ligand 12 (stromal cell-derived factor 1) ([4]; day 7, microarray): 2.22; Ratio of steviol-treated/untreated: Collagen, type IV, alpha 6 ([4]; day 7, microarray): 2.04; Ratio of steviol-treated/untreated: Fibroblast growth factor 7 (keratinocyte growth factor) ([4]; day 7, microarray): 2.91; Ratio of steviol-treated/untreated: Insulin-like growth factor 1 receptor ([4]; day 7, microarray): 2.00; Ratio of steviol-treated/untreated: Integrin, alpha 6 ([4]; day 7, microarray): 2.15; Ratio of steviol-treated/untreated: TIMP metallopeptidase inhibitor 3 ([4]; day 7, microarray): 2.32; Ratio of steviol-treated/untreated: Topoisomerase (DNA) II alpha 170 kDa ([4]; day 7, microarray): 2.45; Ratio of steviol-treated/untreated: Transmembrane protein with EGF-like and two follistatin-like domains 2 ([4]; day 7, microarray): 3.10; biological pathways whose gene expression is modulated ([4]; microarray, Genedata pathway mapping): modulated gene expression of the pathways of epidermal development, ectoderm development and keratinocyte differentiation with a high statistical significance; fur colour (greying; subjective rating score) [5]: significantly improved hair colour (i.e. reduced greying); also recorded: significantly improved fur colour; hair loss (subjective rating score) [5]: significantly improved (i.e. reduced) hair loss; hair loss (subjective rating score) ([5]; listed as steviol): significant reduction of hair loss
